Series [1] addresses T1, human calcitonin receptor (Homo sapiens, UniProt P30988).
T1 construct: expressed in transfected cells; host or cells: BHK570
T1 sequence (P30988 25-474): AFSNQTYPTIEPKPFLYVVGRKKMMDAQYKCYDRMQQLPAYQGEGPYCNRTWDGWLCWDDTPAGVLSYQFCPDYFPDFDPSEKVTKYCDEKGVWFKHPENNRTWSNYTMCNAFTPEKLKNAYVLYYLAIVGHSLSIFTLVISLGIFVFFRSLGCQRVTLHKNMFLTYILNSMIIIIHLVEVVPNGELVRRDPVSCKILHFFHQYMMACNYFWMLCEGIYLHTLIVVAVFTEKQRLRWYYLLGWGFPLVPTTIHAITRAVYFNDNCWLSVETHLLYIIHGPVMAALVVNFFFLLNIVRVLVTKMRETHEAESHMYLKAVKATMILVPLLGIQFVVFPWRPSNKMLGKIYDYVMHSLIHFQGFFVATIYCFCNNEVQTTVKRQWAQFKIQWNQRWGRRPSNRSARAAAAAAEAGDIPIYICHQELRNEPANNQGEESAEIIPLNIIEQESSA
Briefly: Assay (II)a functional CRE-luciferase assay, human calcitonin receptor. The series is classed as cell-based. Particulars: Table 7; human calcitonin (CTa) receptor.

A short description of series [2]: Assay (IV) determination of solubility. The format is physicochemical. In outline: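 Solubility is measured across pH 3.0–8.0 by mixing a ~500 nmol/ml aqueous polypeptide stock 1:1 with 100 mM glycylglycine or bistrispropane buffers. Samples stand 18 hours at room temperature, then are centrifuged and the soluble concentration is determined by HPLC.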
Series [3] addresses T2, human amylin receptor (amylin 3(a) receptor: human calcitonin receptor + RAMP-3) (Homo sapiens, UniProt O60896+P30988).
T2 construct: expressed in transfected cells; host or cells: BHK570
T2 sequence (P30988 25-474): T1 sequence (P30988 25-474)
T2 sequence (O60896 24-148 partner): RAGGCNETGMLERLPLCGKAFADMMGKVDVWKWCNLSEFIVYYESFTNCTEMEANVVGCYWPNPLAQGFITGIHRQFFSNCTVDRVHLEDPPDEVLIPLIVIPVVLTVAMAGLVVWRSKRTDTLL
Briefly: Assay (II)a functional CRE-luciferase assay, human amylin receptor. As to conditions: Table 2; BHK amylin 3(a)-receptor/CRE-luc cells. The format is cell-based.

Series [4] in a line: Assay (III) ThT fibrillation assay for physical stability. The format is physicochemical. In outline: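 Freshly prepared formulations, pH-adjusted, with 1 μM ThT; four or eight replicates incubated at 37 °C under 960 rpm orbital shaking. Fluorescence (ex 444/em 485 nm) read every 20 min; […]. Peptide concentration measured by RP-HPLC before and after the run.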

The mark [5] stands for this setting: bistrispropane buffer, pH 6, pH 6.0, read-out: Solubility pH 6.0.
The mark [6] stands for this setting: bistrispropane buffer, pH 6.5, pH 6.5, read-out: Solubility pH 6.5.
Setting [7] is: bistrispropane buffer, pH 7, pH 7.0, read-out: Solubility pH 7.0.
Where [8] appears, read: bistrispropane buffer, pH 7.5, pH 7.5, read-out: Solubility pH 7.5.
Where [9] appears, read: bistrispropane buffer, pH 8, pH 8.0, read-out: Solubility pH 8.0.
Setting [10] is: glycylglycine buffer, pH 3, pH 3.0, read-out: Solubility pH 3.0.
Where [11] appears, read: glycylglycine buffer, pH 4, pH 4.0, 18 hours at room temperature, Table 2, read-out: Solubility pH 4.0.
Setting [12] is: glycylglycine buffer, pH 4, pH 4.0, read-out: Solubility pH 4.0.
Setting [13] is: glycylglycine buffer, pH 5, pH 5.0, read-out: Solubility pH 5.0.

Converted amounts (≈) assume the structure as drawn. Like-named read-outs stand apart in the source and are kept apart here. Starred links: 1 amine or outer side, 2 acyl side, 3 side chain; linkers in the order of their positions; H or OH if unused. Positions of bridges follow the written chain, without caps; N, C: chain ends. Residues, ends and D or L forms follow the SMILES beside them. *: point of attachment. C20 diacid = O=C(O)CCCCCCCCCCCCCCCCCCC(=O)*; γGlu = O=C(O)[C@H](CCC(=O)[*:2])N[*:1]

Data on 3 molecules can be found in patent US8722849B2, “Polypeptides” (Novo Nordisk A/S, priority 2011, dated 2014).

As usually defined, the EC50 is the midpoint of the concentration-response curve. As usually defined, the solubility is how much of the substance goes into solution per volume.

`CC[C@H](C)[C@H](NC(=O)[C@@H]1CCCN1C(=O)CNC(=O)[C@H](Cc1ccccc1)NC(=O)[C@H](CC(N)=O)NC(=O)[C@H](CC(N)=O)NC(=O)[C@H](CO)NC(=O)[C@H](CO)NC(=O)[C@H](Cc1c[nH]cn1)NC(=O)[C@H](Cc1c[nH]cn1)NC(=O)[C@H](CC(C)C)NC(=O)[C@H](Cc1ccccc1)NC(=O)[C@H](CCC(=O)O)NC(=O)[C@H](C)NC(=O)[C@H](CC(C)C)NC(=O)[C@H](CCCNC(=N)N)NC(=O)[C@H](CCC(N)=O)NC(=O)[C@@H](NC(=O)[C@H](C)NC(=O)[C@@H]1CSSC[C@H](NC(=O)[C@H](CCCCN)NC(=O)CC[C@H](NC(=O)CCCCCCCCCCCCCCCCCCC(=O)O)C(=O)O)C(=O)N[C@@H](CC(N)=O)C(=O)N[C@@H]([C@@H](C)O)C(=O)N[C@@H](C)C(=O)N[C@@H]([C@@H](C)O)C(=O)N1)[C@@H](C)O)C(=O)N[C@@H](CC(C)C)C(=O)N1CCC[C@H]1C(=O)N1CCC[C@H]1C(=O)N[C@H](C(=O)N[C@@H](CC(N)=O)C(=O)N[C@H](C(=O)NCC(=O)N[C@@H](CO)C(=O)N[C@@H](CCCCN)C(=O)N[C@H](C(=O)N[C@@H](Cc1ccc(O)cc1)C(N)=O)[C@@H](C)O)C(C)C)[C@@H](C)O` [Example 113, N-alpha-[(S)-4-Carboxy-4-(19-carboxynonadecanoylamino)butyryl]-[Glu14,His17,Lys35]-pramlintide] ({C20 diacid-γGlu}-KCNTATCATQRLAEFLHHSSNNFGPILPPTNVGSKTY-NH2; disulfide 2-7 (inferred)): the EC50 came to 0.13 nM in series [1] and 0.134 nM in series [3]. Further, the solubility at 18 h in series [2] (setting [5]) was over 200 µM; in series [2] (setting [6]) it was over 200 µM; in series [2] (bistrispropane buffer, pH 7, pH 7.0, 18 hours at room temperature, Table 3, read-out: Solubility pH 7.0), over 200 µM; in series [2] (bistrispropane buffer, pH 7, pH 7.0, Table 8, read-out: Solubility pH 7.0), over 200 µM; in series [2] (bistrispropane buffer, pH 7, pH 7.0, Table 9, read-out: Solubility pH 7.0) it was over 200 µM; in series [2] (setting [7]), over 200 µM. For the same molecule, the solubility at 18 h in series [2] (bistrispropane buffer, pH 7.5, pH 7.5, Table 9, read-out: Solubility pH 7.5) was 188 µM (≈ 840 µg/mL); in series [2] (setting [8]), 188 µM (≈ 840 µg/mL); in series [2] (setting [9]), 124 µM (≈ 554 µg/mL); in series [2] (setting [10]) it was over 200 µM; in series [2] (setting [11]), over 200 µM; in series [2] (setting [12]), over 200 µM. The solubility at 18 h in series [2] (setting [13]) is over 200 µM. For the same molecule, the “ThT pH 4.0 lag time” value in series [4] (Table 8), in series [4] (Table 9) and in series [4] (ThT fibrillation assay) was over 45 h each time. Moreover, in series [4] (ThT fibrillation assay), the “ThT pH 4.0 lag time (h)” value is on record as over 45 h.

In the case of `CC[C@H](C)[C@H](NC(=O)[C@@H]1CCCN1C(=O)CNC(=O)[C@H](Cc1ccccc1)NC(=O)[C@H](CC(N)=O)NC(=O)[C@H](CC(N)=O)NC(=O)[C@H](CO)NC(=O)[C@H](CO)NC(=O)[C@H](Cc1c[nH]cn1)NC(=O)[C@H](Cc1c[nH]cn1)NC(=O)[C@H](CC(C)C)NC(=O)[C@H](Cc1ccccc1)NC(=O)[C@H](CCC(=O)O)NC(=O)[C@H](C)NC(=O)[C@H](CC(C)C)NC(=O)[C@H](CCCNC(=N)N)NC(=O)[C@H](CCC(N)=O)NC(=O)[C@@H](NC(=O)[C@H](C)NC(=O)[C@@H]1CSSC[C@H](NC(=O)[C@H](Cc2c[nH]cn2)NC(=O)[C@H](Cc2c[nH]cn2)NC(=O)[C@H](Cc2c[nH]cn2)NC(=O)CC[C@H](NC(=O)CCCCCCCCCCCCCCCCCCC(=O)O)C(=O)O)C(=O)N[C@@H](CC(N)=O)C(=O)N[C@@H]([C@@H](C)O)C(=O)N[C@@H](C)C(=O)N[C@@H]([C@@H](C)O)C(=O)N1)[C@@H](C)O)C(=O)N[C@@H](CC(C)C)C(=O)N1CCC[C@H]1C(=O)N[C@@H](Cc1c[nH]cn1)C(=O)N[C@H](C(=O)N[C@@H](CC(N)=O)C(=O)N[C@H](C(=O)NCC(=O)N[C@@H](CO)C(=O)N[C@@H](CC(N)=O)C(=O)N[C@H](C(=O)N[C@@H](Cc1ccc(O)cc1)C(N)=O)[C@@H](C)O)C(C)C)[C@@H](C)O` [Example 36, N-alpha-[(S)-4-Carboxy-4-(19-carboxynonadecanoylamino)butyryl]-His-His-[His1,Glu14,His17,His29]-pramlintide] ({C20 diacid-γGlu}-HHHCNTATCATQRLAEFLHHSSNNFGPILPHTNVGSNTY-NH2; disulfide 4-9 (inferred)), the values for the EC50 in series [1] and in series [3] were 0.191 nM and 0.167 nM, respectively. For the same molecule, the solubility at 18 h in series [2] (setting [5]) is over 200 µM; in series [2] (setting [6]), 14 µM (≈ 66.9 µg/mL); in series [2] (setting [8]) it was 2 µM (≈ 9.56 µg/mL); in series [2] (setting [9]), 60 µM (≈ 287 µg/mL); in series [2] (setting [10]), over 200 µM; in series [2] (setting [11]), over 200 µM. Also, the solubility at 18 h in series [2] (setting [12]) and in series [2] (setting [13]) was over 200 µM each time. In addition, the “ThT pH 4.0 lag time (h)” value in series [4] (ThT fibrillation assay) is 1.3 h.

Turning to `CC[C@H](C)[C@H](NC(=O)[C@@H]1CCCN1C(=O)CNC(=O)[C@H](Cc1ccccc1)NC(=O)[C@H](CC(N)=O)NC(=O)[C@H](CC(N)=O)NC(=O)[C@H](CO)NC(=O)[C@H](CO)NC(=O)[C@H](Cc1c[nH]cn1)NC(=O)[C@H](Cc1c[nH]cn1)NC(=O)[C@H](CC(C)C)NC(=O)[C@H](Cc1ccccc1)NC(=O)[C@H](CCC(=O)O)NC(=O)[C@H](C)NC(=O)[C@H](CC(C)C)NC(=O)[C@H](CCCNC(=N)N)NC(=O)[C@H](CCC(N)=O)NC(=O)[C@@H](NC(=O)[C@H](C)NC(=O)[C@@H]1CSSC[C@H](NC(=O)[C@H](CCCCN)NC(=O)CC[C@H](NC(=O)CCCCCCCCCCCCCCCCCCC(=O)O)C(=O)O)C(=O)N[C@@H](CC(N)=O)C(=O)N[C@@H]([C@@H](C)O)C(=O)N[C@@H](C)C(=O)N[C@@H]([C@@H](C)O)C(=O)N1)[C@@H](C)O)C(=O)N[C@@H](CC(C)C)C(=O)N1CCC[C@H]1C(=O)N1CCC[C@H]1C(=O)N[C@H](C(=O)N[C@@H](CC(N)=O)C(=O)N[C@H](C(=O)NCC(=O)N[C@@H](CO)C(=O)N[C@@H](CC(N)=O)C(=O)N[C@@H](Cc1c[nH]cn1)C(=O)N[C@@H](Cc1ccc(O)cc1)C(N)=O)C(C)C)[C@@H](C)O` [Example 114, N-alpha-[(S)-4-Carboxy-4-(19-carboxynonadecanoylamino)butyryl]-[Glu14,His17,His36]-pramlintide] ({C20 diacid-γGlu}-KCNTATCATQRLAEFLHHSSNNFGPILPPTNVGSNHY-NH2; disulfide 2-7 (inferred)), the EC50 in series [1] worked out at 0.113 nM; in series [3], 0.382 nM. The solubility at 18 h in series [2] (setting [5]) is over 200 µM; in series [2] (setting [6]), 73 µM (≈ 328 µg/mL); in series [2] (setting [7]), 14 µM (≈ 62.9 µg/mL); in series [2] (setting [8]) it was 31 µM (≈ 139 µg/mL); in series [2] (setting [9]) it was 79 µM (≈ 355 µg/mL); in series [2] (setting [10]), over 200 µM. Besides, the solubility at 18 h in series [2] (setting [11]), in series [2] (setting [12]) and in series [2] (setting [13]) was over 200 µM in each case. Besides, the “ThT pH 4.0 lag time” value in series [4] (ThT fibrillation assay) is given as over 45 h. In addition, the “ThT pH 4.0 lag time (h)” value in series [4] (ThT fibrillation assay) is on record as over 45 h.
